Peptide text beside a SMILES is read from it.
The compounds below were run against soluble HLA-A*0201 molecules (Homo sapiens, UniProt P04439, D140Y/D185E/D98H/E176V/E277Q/G131W/G231S/I119V/I121R/I166T/I218V/L300P/L318F/N151K/N90K/P208A/P217A/Q86G/Q94H/R138H/R169H/T345S) (assay: Binding affinity of synthetic peptides to soluble HLA-A*0201 molecules). Conditions: not given.
With `CSCC[C@H](N)C(=O)N[C@@H](CC(C)C)C(=O)N[C@@H](Cc1c[nH]c2ccccc12)C(=O)N[C@H](C(=O)N[C@H](C(=O)N[C@@H](CC(=O)O)C(=O)N[C@@H](CCCCN)C(=O)N[C@@H](Cc1c[nH]cn1)C(=O)N[C@H](C(=O)O)C(C)C)[C@@H](C)O)[C@@H](C)O` [VP11/12_238–246] (H-MLWTTDKHV-OH) the IC50 was 1.29 µM.
`CC(C)C[C@H](NC(=O)[C@@H](N)Cc1ccccc1)C(=O)N[C@H](C(=O)N[C@@H](CS)C(=O)N[C@H](C(=O)N[C@@H](CC(=O)O)C(=O)N[C@@H](CCCNC(=N)N)C(=O)N[C@@H](CO)C(=O)N[C@H](C(=O)O)C(C)C)[C@@H](C)O)[C@@H](C)O` [VP11/12_66–74] (H-FLTCTDRSV-OH) gave an IC50 of 0.083 µM and a Kd of 0.081 µM.
In the case of `CC[C@H](C)[C@H](NC(=O)[C@@H](N)CCCNC(=N)N)C(=O)N[C@@H](CCC(N)=O)C(=O)N[C@@H](CCC(N)=O)C(=O)N[C@@H](Cc1ccc(O)cc1)C(=O)N[C@@H](CCSC)C(=O)N[C@@H](Cc1ccccc1)C(=O)N[C@@H](Cc1ccccc1)C(=O)N[C@@H](CCSC)C(=O)O` [VP11/12_197–205] (H-RIQQYMFFM-OH), the IC50 is reported as 0.081 µM and the Kd is reported as 0.083 µM.
`CC(C)C[C@H](NC(=O)[C@H](CC(C)C)NC(=O)[C@H](CCC(=O)O)NC(=O)[C@H](CC(N)=O)NC(=O)[C@H](CC(C)C)NC(=O)[C@@H](N)CCCNC(=N)N)C(=O)N[C@@H](C)C(=O)N[C@@H](Cc1ccc(O)cc1)C(=O)N[C@H](C(=O)O)C(C)C` [VP11/12_220–228] (H-RLNELLAYV-OH) showed an IC50 of 0.709 µM and a Kd of 0.709 µM.
`CC(C)C[C@H](NC(=O)[C@H](CCCCN)NC(=O)[C@@H](NC(=O)[C@H](CC(C)C)NC(=O)[C@H](CC(C)C)NC(=O)[C@H](C)NC(=O)[C@H](CO)NC(=O)[C@H](CC(C)C)NC(=O)[C@H](C)N)[C@@H](C)O)C(=O)O` [VP11/12_702–710] (H-ALSALLTKL-OH) gave an IC50 of 0.313 µM and a Kd of 0.313 µM.

Same assay, conditions: soluble HLA-A*0201 molecules
For ILTQYWKYL [VP11/12_127–135], the “binding affinity to soluble HLA-A*0201 molecules (in words)” value was “did not bind”.

Reference: article PMC4340763 (Journal of immunology (Baltimore, Md. : 1950), 2015)
